Reference: patent US20040242871A1, “Novel arylheteroalkylamine derivatives” (priority 2001, published 2004)

Target: T1, Nitric oxide synthase from induced murine macrophage cell line J774A-1 (Mus musculus, UniProt P29477)
T1 construct: The reaction is started by adding 50 μl of cell lysate (prepared as above); endogenous in cells; host or cells: J774A-1 murine macrophage cell line, induced with LPS and IFN-gamma; crude cell lysate
Experiment: Screen 1: nitric oxide synthase inhibition, conversion of 3H-L-arginine into 3H-L-citrulline, lysate of induced J774A-1 cells
Format: biochemical
Settings: J774A-1 cell lysate (LPS/IFNg induced), 1 hour at room temperature; read-out: IC50 (concentration of drug substance which gives 50% enzyme inhibition in the assay)
Protocol: The activity of compounds of formula (I), or a pharmaceutically acceptable salt, enantiomer or racemate thereof, may be screened for nitric oxide synthase inhibiting activity by a procedure based on that of Förstermann et al., Eur. J. Pharm., 1992, 225, 161-165. Nitric oxide synthase converts ^3H-L-arginine into ^3H-L-citrulline which can be separated by cation exchange chromatography and quantified by liquid scintillation counting.
Enzyme is prepared, after induction, from the cultured murine macrophage cell line J774A-1 (obtained from the laboratories of the Imperial Cancer Research Fund). J774A-1 cells are cultured in Dulbeccos Modified Eagles Medium (DMEM) supplemented with 10% foetal bovine serum, 4 mM L-glutamine and antibiotics (100 units/ml penicillin G, […] streptomycin & […] amphotericin B). Cells are routinely grown in […] flasks containing 35 ml medium kept at 37° C. and in a humidified atmosphere containing 5% CO2. […]
Labelled L-citrulline is separated from labelled L-arginine using Dowex AG-SOW. […] After allowing the samples to dry the L-citrulline is quantified by scintillation counting.
In a typical experiment basal activity is 300 dpm per 75 μl sample which is increased to 1900 dpm in the reagent controls. […] Compounds are tested at a range of concentrations and from the inhibitions obtained IC50 values are calculated. […]

Structure (SMILES): N=C(N)NN [aminoguanidie]
- IC50: 10 µM
